Test results from ChEMBL document CHEMBL1201862, “PubChem BioAssay data set” (2004).
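How tested: cells in 96-well plates exposed to compound for 48 hours at five concentrations. At the GI50, growth is halved.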 Active and inactive are the calls of the source. Rule as the data show it: active = GI50 up to about 1.1 µM and inactive = higher.

How the values were obtained:
Assay in all cases: NCI-60 cell line screen, 48 h
[1] = system: OVCAR-3
[2] = system: SN12C
[3] = system: HL-60
[4] = system: MOLT-4
[5] = system: HOP-92
[6] = system: OVCAR-5
[7] = system: SK-MEL-28
[8] = system: ACHN
[9] = system: OVCAR-4
[10] = system: A549
[11] = system: COLO 205
[12] = system: SK-MEL-5
[13] = system: HCC 2998
[14] = system: KM12
[15] = system: HT-29
[16] = system: EKVX
[17] = system: A498

Measured: GI50

CN(O)C(=O)Cc1ccccc1
inactive: [1] > 100 µM | [2] > 100 µM | [3] > 100 µM | [4] > 100 µM | [5] > 100 µM | [6] > 100 µM | [7] > 100 µM | [8] > 100 µM | [9] > 100 µM | [10] > 100 µM | [11] > 100 µM | [12] > 100 µM | [13] > 100 µM | [14] > 100 µM | [15] > 100 µM

COCOC1CCCC[C@@]1(OCCOCCO[C@@]1(c2ccccc2)CCCC[C@H]1OCOC)c1ccccc1 (stereo partly specified)
inactive: [1] > 100 µM | [16] 37.8 µM | [2] > 100 µM | [3] > 100 µM | [4] > 10 µM | [6] > 100 µM | [7] > 100 µM | [8] 87.7 µM | [9] > 100 µM | [10] 99.5 µM | [11] > 100 µM | [13] > 100 µM | [14] > 100 µM | [15] > 100 µM

OC1=CN=C(c2ccccc2)Oc2ccccc21
inactive: [1] 15.3 µM | [16] > 100 µM | [2] > 100 µM | [3] > 100 µM | [4] > 100 µM | [5] > 100 µM | [7] > 100 µM | [8] > 100 µM | [9] 47.6 µM | [10] > 100 µM | [17] > 100 µM | [11] > 100 µM | [12] > 100 µM | [13] > 100 µM | [14] 50.9 µM | [15] > 100 µM

COC(=O)N/N=C(\C)C(CN1CCCCC1)C(C1=C(O)c2ccccc2OC1)c1ccccc1 (stereo unspecified)
inactive: [1] > 100 µM | [16] > 100 µM | [2] > 100 µM | [3] > 100 µM | [4] > 100 µM | [6] > 100 µM | [7] > 100 µM | [8] > 100 µM | [9] > 100 µM | [10] > 100 µM | [17] > 100 µM | [11] > 100 µM | [12] > 100 µM | [14] > 100 µM | [15] > 100 µM

Cc1ccc(NC(=O)CSc2nnc(-c3ccc(/N=C\c4ccc(Cl)cc4)cc3)o2)cc1
inactive: [16] > 100 µM | [2] > 100 µM | [3] > 100 µM | [4] > 100 µM | [7] > 100 µM | [8] > 100 µM | [9] > 100 µM | [10] > 100 µM | [11] > 100 µM | [12] > 100 µM | [14] > 100 µM | [15] > 100 µM

C/C(=C\CNc1ncnc2c1ncn2C1CCCCO1)COP(=O)(O)O (stereo unspecified)
inactive: [1] > 100 µM | [16] > 100 µM | [2] > 100 µM | [3] > 100 µM | [4] > 100 µM | [5] > 100 µM | [6] > 100 µM | [7] > 100 µM | [8] > 100 µM | [9] > 100 µM | [10] > 100 µM | [11] > 100 µM | [12] > 100 µM | [13] > 100 µM | [14] > 100 µM | [15] > 100 µM

N=C(N)NNC(=O)CCn1[nH]c(=O)c(Cl)c(Cl)c1=O
inactive: [1] > 100 µM | [16] > 100 µM | [2] > 100 µM | [3] > 100 µM | [4] > 100 µM | [6] > 100 µM | [7] > 100 µM | [8] > 100 µM | [9] > 100 µM | [10] > 100 µM | [11] > 100 µM | [12] > 100 µM | [13] > 100 µM | [14] > 100 µM | [15] > 100 µM

CC(=O)OC1CCn2nnc(CO[Si](C)(C)C(C)(C)C)c21 (stereo unspecified)
inactive: [1] > 100 µM | [16] > 100 µM | [2] > 100 µM | [4] > 100 µM | [6] > 100 µM | [7] > 100 µM | [8] > 100 µM | [9] > 100 µM | [10] > 100 µM | [11] > 100 µM | [12] > 100 µM | [13] > 100 µM | [14] > 100 µM | [15] > 100 µM

COC(=O)C(C)NP(=O)(N1CC1)N1CC1 (stereo unspecified)
inactive: [16] > 100 µM | [2] 73.6 µM | [3] 32.7 µM | [4] 40.3 µM | [6] > 100 µM | [7] > 100 µM | [8] 27.9 µM | [9] > 100 µM | [10] > 100 µM | [17] > 100 µM | [11] > 100 µM | [12] > 100 µM | [13] > 100 µM | [14] > 100 µM | [15] > 100 µM

O=c1[nH]c(=O)n(C2CC(O)C(CO)O2)cc1C#Cc1ccc(F)cc1 (stereo unspecified)
inactive: [1] > 100 µM | [16] > 100 µM | [2] > 100 µM | [4] > 100 µM | [6] > 100 µM | [7] > 100 µM | [8] > 100 µM | [9] 25.8 µM | [10] > 100 µM | [11] > 100 µM | [12] > 100 µM | [13] > 100 µM | [14] > 100 µM | [15] > 100 µM

O=[N+]([O-])C=C(c1ccc(Cl)cc1)c1ccc(Cl)cc1
inactive: [1] > 10 µM | [16] 17.5 µM | [2] 19.5 µM | [3] 17.1 µM | [4] 17.9 µM | [6] 14.5 µM | [7] 16.8 µM | [8] 16.7 µM | [9] 13.5 µM | [10] 19.7 µM | [17] 20 µM | [11] 3.85 µM | [13] 19 µM | [14] 14.6 µM | [15] 18.9 µM

C=C=C(CC)C(C(=O)OC)N(CC)CC (stereo unspecified)
inactive: [1] > 100 µM | [16] > 100 µM | [2] > 100 µM | [3] > 100 µM | [4] > 100 µM | [5] > 100 µM | [7] > 100 µM | [8] > 100 µM | [9] > 100 µM | [10] > 100 µM | [17] > 100 µM | [11] > 100 µM | [12] > 100 µM | [14] > 100 µM | [15] > 100 µM

O=C1OC(c2ccccc2)=N/C1=C\c1ccc2ccccc2c1
inactive: [1] > 100 µM | [16] > 100 µM | [2] > 100 µM | [4] > 100 µM | [5] > 100 µM | [6] > 100 µM | [7] > 100 µM | [8] > 100 µM | [9] > 100 µM | [10] > 100 µM | [17] > 100 µM | [11] > 100 µM | [12] > 100 µM | [14] > 100 µM | [15] > 100 µM
